Inconclusive results are not listed.
Molecular target: Cathepsin B (Homo sapiens) (UniProt P07858)
Test: potency determination for CTSB inhibitors, concentration-dependent titration, enzymatic biochemical, actives identified in pooled-sample high-throughput screen (AID 830)
Details: purified cathepsin B enzyme activity, signal read-out

Point of comparison: Nc1nc2n(n1)C1(CCCCC1)C1=C(CCCC1)N2, IC50 12900 nM. Against it:
- O=S(=O)(/N=S1/CC=CCN1S(=O)(=O)c1ccccc1)c1ccccc1 (stereo unspecified) — within 1.5-fold, 9390 nM
- Cc1ccc(S(=O)(=O)n2nc(OC(=O)c3ccco3)cc2N)cc1 — 7.4-fold lower, 1750 nM
- Nc1cc(OC(=O)c2cccs2)nn1S(=O)(=O)c1ccccc1 — 52-fold lower, 247 nM
- Cc1ccc(S(=O)(=O)n2nc(OC(=O)c3cccs3)cc2N)cc1 — 6.5-fold lower, 1990 nM
- Nc1cc(OC(=O)c2ccco2)nn1S(=O)(=O)c1ccc(F)cc1 — 10-fold lower, 1260 nM

Source: PubChem BioAssay AID830 (PCMD, 2007)
